Laboratory results from BindingDB's records for doi:10.1016/s0960-894x(00)00462-5 (Smithkline Beecham Pharmaceuticals, 2001).

Tests used:
[1] = target: Capsid scaffolding protein / assemblin protease (Human cytomegalovirus) (UniProt P16753); assay: In vitro inhibitory activity against human cytomegalovirus (hCMV) protease in the absence of zinc
[2] = target: Capsid scaffolding protein / assemblin protease (Human cytomegalovirus) (UniProt P16753); assay: In vitro inhibitory activity against human cytomegalovirus (hCMV) protease in the presence of zinc
[3] = target: Capsid scaffolding protein / assemblin protease (Human cytomegalovirus) (UniProt P16753); assay: as above; remark: listed apart in the source

Sequence of Capsid scaffolding protein / assemblin protease (Human cytomegalovirus) (P16753 whole entry, looked up): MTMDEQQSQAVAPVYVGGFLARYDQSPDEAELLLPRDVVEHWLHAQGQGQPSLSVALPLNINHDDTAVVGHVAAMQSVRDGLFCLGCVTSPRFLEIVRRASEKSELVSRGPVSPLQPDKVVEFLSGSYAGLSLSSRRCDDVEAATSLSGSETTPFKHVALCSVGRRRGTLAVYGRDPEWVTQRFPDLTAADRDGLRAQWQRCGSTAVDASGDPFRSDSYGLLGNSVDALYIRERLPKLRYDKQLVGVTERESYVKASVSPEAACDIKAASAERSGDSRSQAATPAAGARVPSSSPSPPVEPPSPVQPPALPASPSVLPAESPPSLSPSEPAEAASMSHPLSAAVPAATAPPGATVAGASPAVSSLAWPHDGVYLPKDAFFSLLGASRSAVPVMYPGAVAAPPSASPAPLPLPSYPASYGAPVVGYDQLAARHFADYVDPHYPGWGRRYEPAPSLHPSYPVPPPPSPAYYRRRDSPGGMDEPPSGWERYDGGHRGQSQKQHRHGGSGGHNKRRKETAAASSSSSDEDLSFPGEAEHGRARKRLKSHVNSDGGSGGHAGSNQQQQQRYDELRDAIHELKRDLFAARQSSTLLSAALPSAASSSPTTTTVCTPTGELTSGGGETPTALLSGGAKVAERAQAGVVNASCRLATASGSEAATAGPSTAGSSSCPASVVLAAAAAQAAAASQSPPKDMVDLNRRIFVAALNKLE

Row | IC50 [1] | IC50 [2] | IC50 [3] | SMILES
1 | 125 µM | 41 µM | – | CCCCCCCCSc1ncc(Cc2cn(CC(=O)NC(Cc3ccccc3)C(=O)OCc3ccccc3)cn2)[nH]1 (stereo not drawn) [2-{2-[4-(2-Octylsulfanyl-1H-imidazol-4-ylmethyl)-imidazol-1-yl]-acetylamino}-3-phenyl-propionic acid benzyl ester]
2 | 15 µM | – | 5 µM | CCCCCCCCSc1ncc(Cc2cn(CC(=O)NC(CC(=O)OCc3ccccc3)C(=O)OCc3ccccc3)cn2)[nH]1 (stereo not drawn) [2-{2-[4-(2-Octylsulfanyl-1H-imidazol-4-ylmethyl)-imidazol-1-yl]-acetylamino}-succinic acid dibenzyl ester]
3 | > 150 µM | – | 7 µM | CCCCCCCCSc1ncc(Cc2cn(Cc3ccc(C(=O)OC)cc3)cn2)[nH]1 [4-[4-(2-Octylsulfanyl-1H-imidazol-4-ylmethyl)-imidazol-1-ylmethyl]-benzoic acid methyl ester]
4 | > 150 µM | – | 15 µM | CCCCCCCCSc1ncc(Cc2cn(Cc3ccc(C(=O)NCC4CC4)cc3)cn2)[nH]1 [N-Cyclopropylmethyl-4-[4-(2-octylsulfanyl-1H-imidazol-4-ylmethyl)-imidazol-1-ylmethyl]-benzamide]
